From US9295732B2, “Conjugated TLR7 and/or TLR8 and TLR2 polycationic agonists” (CAYLA, priority 2013, dated 2016)
Values joined by “and” are separate entries in the source; they are usually repeats but may differ in a detail not shown here. Equal values may be shown once.

How the values were obtained:
[1] = Nanoparticle (lipoplex) size by dynamic light scattering; conditions: 25° C., triplicate; for Mean Diameter: complexes with pDNA 3:24 (w:w), dynamic light scattering; for PDI: polydispersity index of complexes with pDNA 3:24 (w:w);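 as to all read-outs here: lipoplexes of TLR7-TLR2 polyamine conjugates with plasmid DNA, formed over 30 min at room temperature in serum-free medium or 5% glucose, diameter in nm, PDI dimensionless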
[2] = test system: plasmid DNA (pDNA); assay: Gel shift (mobility shift) assay of pDNA complexation; assay type: binding; conditions: pDNA:molecule ratio 3:24 (w:w), 0.8% agarose gel, compared to pDNA alone
Protocol: Then, 10 μl of pDNA:TLR7-TLR2 polyamine molecule complexes and 2 μl of charge buffer were mixed and loaded into wells of a 0.8% agarose gel. Samples were migrated through the gel in TAE buffer under 135 voltage for 21 mins and the migration of the pDNA was visualized following ethidium bromide staining under UV light. The ability of TLR7-TLR2 polyamine molecules to complex/associate with the pDNA was identified by partial or complete retardation of the pDNA migration toward the anode in the gel compared to pDNA alone. […] Ethidium bromide intercalation of pDNA in complex with molecules allowed visualization of complexed pDNA as a smear in the wells of the gel.

[3] = target: T1, human TLR7 (Homo sapiens, UniProt Q9NYK1); assay: HEK-Blue hTLR7 NF-κB/AP-1 SEAP reporter assay; assay type: cell-based; conditions: HEK-Blue hTLR7 cells, 10 μg/mL to 10 pg/ml, 24 hours, OD at 655 nm, FIG. 1
T1 construct: host or cells: HEK293 (HEK-Blue™ hTLR7)
T1 sequence (Q9NYK1 27-1049): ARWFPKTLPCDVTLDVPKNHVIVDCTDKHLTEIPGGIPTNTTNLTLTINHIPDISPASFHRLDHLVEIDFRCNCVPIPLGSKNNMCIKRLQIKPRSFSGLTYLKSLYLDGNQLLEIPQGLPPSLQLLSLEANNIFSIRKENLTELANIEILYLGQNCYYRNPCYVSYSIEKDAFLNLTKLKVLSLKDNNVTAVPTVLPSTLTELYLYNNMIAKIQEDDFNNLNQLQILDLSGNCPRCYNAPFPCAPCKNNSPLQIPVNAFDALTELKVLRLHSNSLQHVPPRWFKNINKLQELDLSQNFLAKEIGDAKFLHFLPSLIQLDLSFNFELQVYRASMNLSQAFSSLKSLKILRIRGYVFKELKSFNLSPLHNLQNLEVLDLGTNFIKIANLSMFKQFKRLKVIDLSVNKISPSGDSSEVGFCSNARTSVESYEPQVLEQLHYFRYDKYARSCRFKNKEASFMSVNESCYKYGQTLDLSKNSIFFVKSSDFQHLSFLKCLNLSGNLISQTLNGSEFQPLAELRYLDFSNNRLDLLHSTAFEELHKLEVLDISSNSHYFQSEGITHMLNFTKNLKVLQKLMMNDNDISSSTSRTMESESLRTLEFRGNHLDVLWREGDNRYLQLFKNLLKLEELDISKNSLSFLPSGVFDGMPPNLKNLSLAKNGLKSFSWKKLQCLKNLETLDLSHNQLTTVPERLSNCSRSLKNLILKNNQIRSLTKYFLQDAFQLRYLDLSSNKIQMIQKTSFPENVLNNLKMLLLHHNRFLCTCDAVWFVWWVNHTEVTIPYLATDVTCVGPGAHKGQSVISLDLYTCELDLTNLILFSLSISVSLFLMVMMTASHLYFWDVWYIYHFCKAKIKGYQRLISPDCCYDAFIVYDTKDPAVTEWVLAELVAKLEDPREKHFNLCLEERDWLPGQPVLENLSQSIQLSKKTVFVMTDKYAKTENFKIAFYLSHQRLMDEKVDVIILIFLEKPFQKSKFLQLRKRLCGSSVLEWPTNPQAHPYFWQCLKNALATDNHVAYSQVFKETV
Protocol: (§1) Cell-based assays were carried out using TLR7 and TLR2 reporter cell lines (InvivoGen). The reporter cell lines are engineered HEK293 cells, a human embryonic kidney cell line (ATCC, CRL-1573) that stably express either murine TLR7 (HEK-Blue™ mTLR7) or human TLR7 (HEK-Blue™ hTLR7) or human TLR2 (HEK-Blue™ hTLR2) with an NF-κB-inducible secreted embryonic alkaline phosphatase (SEAP) as the reporter gene. The SEAP reporter gene is under the control of the NF-κB and AP-1-inducible promoter, which, upon treatment with a corresponding TLR ligand and activation of NF-κB and AP-1, induces the production of SEAP. Detection of SEAP is measured following culturing cells in HEK-Blue™ Detection media (InvivoGen). HEK-Blue™ Detection contains a SEAP substrate that when hydrolysed by SEAP produces a colorimetric change allowing for detection of SEAP as the protein is secreted. […] These assays were carried out using RAW-Blue™ Cells (InvivoGen), derived from RAW 264.7 mouse leukemic monocyte macrophage cell line (ATCC, CRL 2278) stably overexpressing a NF-B/AP-1 inducible SEAP reporter constructs.
(§2) To perform the assay, cells were seeded on 96 well microliter plates at 50,000 or 100,000 cells per well for HEK-Blue™ Cells and RAW-Blue™ Cells respectively, and cultured at 37° C. in the presence of the conjugated compounds The TLR7-TLR2 polyamine molecules were prepared as follows: First, stock solutions of the conjugated compounds of the invention were prepared in ethanol or water to a concentration of 10 mg/ml.
(§3) The working dilutions of the conjugated TLR7-TLR2 polyamine agonists made up in water or PBS were directly added to the reporter cell lines at a final concentration ranging from 10 μg/mL to 10 pg/ml and incubated at 37° C. for 24 hours. After 24 hours of incubation, the effect on reporter gene activity was determined by reading the OD at 655 nm using iMark™ Microplate Reader (BIO-RAD).

[4] = target: T2, murine TLR7 (Mus musculus, UniProt P58681); assay: HEK-Blue mTLR7 NF-κB/AP-1 SEAP reporter assay; assay type: cell-based; conditions: HEK-Blue mTLR7 cells, 10 μg/mL to 10 pg/ml, 24 hours, OD at 655 nm, FIG. 2
T2 construct: host or cells: HEK293 (HEK-Blue™ mTLR7)
T2 sequence (P58681 27-1050): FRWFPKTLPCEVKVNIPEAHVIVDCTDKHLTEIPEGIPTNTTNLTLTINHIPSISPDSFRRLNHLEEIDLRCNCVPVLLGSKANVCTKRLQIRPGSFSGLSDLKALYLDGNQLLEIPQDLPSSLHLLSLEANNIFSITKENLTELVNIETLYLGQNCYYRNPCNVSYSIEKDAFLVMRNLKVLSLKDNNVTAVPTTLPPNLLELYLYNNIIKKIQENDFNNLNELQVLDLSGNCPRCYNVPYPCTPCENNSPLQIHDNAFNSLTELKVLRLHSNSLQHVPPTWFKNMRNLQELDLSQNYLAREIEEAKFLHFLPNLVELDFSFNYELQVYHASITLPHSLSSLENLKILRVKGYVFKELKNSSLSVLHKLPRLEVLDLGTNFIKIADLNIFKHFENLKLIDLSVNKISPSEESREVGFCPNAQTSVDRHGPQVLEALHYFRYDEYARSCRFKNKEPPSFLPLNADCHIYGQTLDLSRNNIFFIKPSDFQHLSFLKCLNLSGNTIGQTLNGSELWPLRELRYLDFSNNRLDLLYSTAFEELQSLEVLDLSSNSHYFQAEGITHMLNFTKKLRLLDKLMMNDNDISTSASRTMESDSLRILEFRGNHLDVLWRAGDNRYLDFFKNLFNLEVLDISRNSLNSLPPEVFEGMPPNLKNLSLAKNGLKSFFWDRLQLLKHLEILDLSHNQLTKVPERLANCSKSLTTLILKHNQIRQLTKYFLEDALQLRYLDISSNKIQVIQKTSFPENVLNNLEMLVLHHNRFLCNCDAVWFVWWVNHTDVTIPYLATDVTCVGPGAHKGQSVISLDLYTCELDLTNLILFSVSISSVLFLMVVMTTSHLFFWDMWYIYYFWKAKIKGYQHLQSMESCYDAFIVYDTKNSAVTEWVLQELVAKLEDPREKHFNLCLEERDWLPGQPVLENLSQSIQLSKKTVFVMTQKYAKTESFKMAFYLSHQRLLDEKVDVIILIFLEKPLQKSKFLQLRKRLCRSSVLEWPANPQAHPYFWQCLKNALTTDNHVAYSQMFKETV
Protocol: as §1, §2, §3

[5] = target: T3, human TLR2 (Homo sapiens, UniProt O60603); assay: HEK-Blue hTLR2 NF-κB/AP-1 SEAP reporter assay; assay type: cell-based; conditions: HEK-Blue hTLR2 cells, 10 μg/mL to 10 pg/ml, 24 hours, OD at 655 nm, FIG. 3
T3 construct: host or cells: HEK293 (HEK-Blue™ hTLR2)
Protocol: as §1, §2, §3

[6] = test system: endogenous TLR2 and TLR7 in RAW-Blue™ Cells; assay: RAW-Blue Cells NF-κB/AP-1 SEAP reporter assay; assay type: cell-based, mouse; conditions: 24 hours, OD at 655 nm, FIG. 4
Protocol: as §1, §2, §3

T3 sequence (O60603 21-784): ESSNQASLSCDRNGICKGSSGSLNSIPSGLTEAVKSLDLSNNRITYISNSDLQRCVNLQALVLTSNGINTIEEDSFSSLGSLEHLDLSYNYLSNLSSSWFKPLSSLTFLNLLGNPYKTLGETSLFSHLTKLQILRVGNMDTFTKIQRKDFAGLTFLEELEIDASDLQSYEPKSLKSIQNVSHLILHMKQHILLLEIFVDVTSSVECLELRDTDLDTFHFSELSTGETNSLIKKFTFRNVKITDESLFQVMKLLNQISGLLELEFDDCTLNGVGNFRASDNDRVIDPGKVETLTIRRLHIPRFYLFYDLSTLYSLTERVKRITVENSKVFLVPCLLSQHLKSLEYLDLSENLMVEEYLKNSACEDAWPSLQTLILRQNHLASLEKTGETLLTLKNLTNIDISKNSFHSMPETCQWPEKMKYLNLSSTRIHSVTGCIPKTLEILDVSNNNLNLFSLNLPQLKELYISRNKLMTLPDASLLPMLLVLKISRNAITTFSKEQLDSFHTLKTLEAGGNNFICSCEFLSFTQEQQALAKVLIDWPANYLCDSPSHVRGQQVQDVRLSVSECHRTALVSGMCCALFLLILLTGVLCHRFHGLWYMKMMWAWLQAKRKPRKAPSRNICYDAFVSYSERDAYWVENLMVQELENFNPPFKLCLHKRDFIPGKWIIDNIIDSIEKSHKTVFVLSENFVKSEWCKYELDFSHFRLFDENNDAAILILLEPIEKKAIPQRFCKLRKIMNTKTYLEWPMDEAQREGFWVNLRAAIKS

| Compound | Mean Diameter [1] | PDI [1] | ability to complex pDNA (retardation of pDNA migration in agarose gel) [2] | ability to activate hTLR7 [3] | ability to activate mTLR7 [4] | ability to activate hTLR2 [5] | ability to activate endogenous TLR2 and TLR7 in RAW-Blue Cells [6] |
| --- | --- | --- | --- | --- | --- | --- | --- |
| CCCCCCCCCCCCCCCC(=O)OCC(CSC[C@H](N)C(=O)NCCCC[C@H](NC(=O)CNC(=O)c1ccc(Cn2c(O)nc3c(N)nc(NCCCC)nc32)cc1)C(=O)NCCCNCCCCNCCCN)OC(=O)CCCCCCCCCCCCCCC (stereo partly drawn) [CL487, (6R,13S)-6,27-diamino-13-(2-(4-((6-amino-2-(butylamino)-8-hydroxy-9H-purin-9-yl)methyl)benzamido)acetamido)-7,14-dioxo-4-thia-8,15,19,24-tetraazaheptacosane-1,2-diyl dipalmitate] | 165.6 nm and 160.0 nm and 148.1 nm | 0.255 and 0.241 and 0.23 | inability to migrate through an agarose gel | activate hTLR7 | activate mTLR7 | activate hTLR2 | activate endogenous TLR2 and TLR7 |
| CCCCCCCCCCCCCCCC(=O)OCC(CSC[C@H](N)C(=O)NCCCC[C@H](NC(=O)c1ccc(Cn2c(O)nc3c(N)nc(NCCCC)nc32)cc1)C(=O)NCCCNCCCCNCCCN)OC(=O)CCCCCCCCCCCCCCC (stereo partly drawn) [CL486, (6R,13S)-6,27-diamino-13-(4-((6-amino-2-(butylamino)-8-hydroxy-9H-purin-9-yl)methyl)benzamido)-7,14-dioxo-4-thia-8,15,19,24-tetraazaheptacosane-1,2-diyl dipalmitate] | 202.0 nm and 209.2 nm and 179.7 nm | 0.234 and 0.236 and 0.232 | inability to migrate through an agarose gel | activate hTLR7 | activate mTLR7 | activate hTLR2 | activate endogenous TLR2 and TLR7 |
| CCCCCCCCCCCCCCCC(=O)OCC(CSC[C@H](N)C(=O)NCCCNCCCCNCCCN)OC(=O)CCCCCCCCCCCCCCC (some centres unmarked) [CL419] | 147.0 nm and 148.5 nm and 156.7 nm | 0.185 and 0.193 and 0.210 |  |  |  |  |  |
| CCCCCCCCCCCCCCCC(=O)OCC(CSC[C@H](N)C(=O)N[C@@H](CO)C(=O)N[C@@H](CCCCN)C(=O)N[C@@H](CCCCNC(=O)c1ccc(Cn2c(O)nc3c(N)nc(NCCCC)nc32)cc1)C(=O)N[C@@H](CCCCN)C(=O)N[C@@H](CCCCN)C(=O)O)OC(=O)CCCCCCCCCCCCCCC (stereo partly drawn) [CL531, (2S,5S,8S,11S,14S,17R)-17-amino-8-(4-(4-((6-amino-2-(butylamino)-8-hydroxy-9H-purin-9-yl)methyl)benzamido)butyl)-2,5,11-tris(4-aminobutyl)-14-(hydroxymethyl)-4,7,10,13,16,24-hexaoxo-21-(palmitoyloxy)-23-oxa-19-thia-3,6,9,12,15-pentaaza nonatriacontan-1-oic acid] |  |  | inability to migrate through an agarose gel | activate hTLR7 | activate mTLR7 | activate hTLR2 | activate endogenous TLR2 and TLR7 |
| CCCCCCCCCCCCCCCC(=O)N[C@@H](CSCC(COC(=O)CCCCCCCCCCCCCCC)OC(=O)CCCCCCCCCCCCCCC)C(=O)N[C@@H](CO)C(=O)N[C@@H](CCCCN)C(=O)N[C@@H](CCCCNC(=O)c1ccc(Cn2c(O)nc3c(N)nc(NCCCC)nc32)cc1)C(=O)N[C@@H](CCCCN)C(=O)N[C@@H](CCCCN)C(=O)O (stereo partly drawn) [CL536, (2S,5S,8S,11S,14S,17R)-8-(4-(4-((6-amino-2-(butylamino)-8-hydroxy-9H-purin-9-yl)methyl)benzamido)butyl)-2,5,11-tris(4-aminobutyl)-14-(hydroxymethyl)-4,7,10,13,16,24-hexaoxo-17-palmitamido-21-(palmitoyloxy)-23-oxa-19-thia-3,6,9,12,15-pentaazanonatriacontan-1-oic acid] |  |  | inability to migrate through an agarose gel | activate hTLR7 | activate mTLR7 | activate hTLR2 | activate endogenous TLR2 and TLR7 |
